Test results: patent US8097656B2, “Nitrogenated trans-stilbene analogs, method for the obtention and medical applications thereof” (Dominion Pharmakine S.L, priority 2005, dated 2012)

Legend:
[1] = tested on: MB16 cells; assay: Hydrogen peroxide production from MB16 cells (DCFH-DA probe); format: cell-based, murine; details: 2.5 μM prior to IL-18; for H2O2 production by MB16 cells treated with IL-18: control 16.0 ± 3, IL-18 alone 34 ± 3.0
Experimental: Determination of hydrogen peroxide production from HSE and MB16 cells. Primary cultures of HSE cells were treated with 10 μg/ml of the DCFH-DA fluorescent probe for 30 minutes at 37° C. and were washed to eliminate the excess fluorochromium. Afterward, fresh culture medium was added thereto in the presence or absence of 2.5 μM of the compounds JE1:2, JE2:1 or JE2:2 and the production of H202 over the course of time was determined (see FIG. 5). The hydrogen peroxide produced by the cells oxidizes the probe, converting it into a fluorescent molecule. Thus, the cell fluorescence produced by the accumulation of DCF made it possible to detect the intracellular production of hydrogen peroxide. In each cell well, it was possible to determine the relative fluorescence value (arbitrary units of fluorescence brightness) in relation to the quantity of hydrogen peroxide produced at different incubation times. In the experiments with MB16 cells, once the cells had been marked with the DCFH-DA probe, they were incubated for 300 minutes with 2.5 μM of the azaresveratrol or JE2:2 compounds, 10 ng/ml of IL-18 (FIG. 4) then having been added.

[2] = tested on: MB16 cells; assay: MB16 hepatic metastasis test after intrasplenic injection; format: in vivo, C57BL/6J mice; details: 1 mg/Kg/day nasogastrically; for Reduction of the mean density of hepatic metastases: daily, vs control animals, P<0.01; for No. portal metases/No. sinusoidal metastasis (ratio in brackets) / Percentage of focal points w/cavitation (% of total no. of metastatic focal points) / No. portal metases / No. sinusoidal metastasis / Volume of hepatic metastasis (mm^3) / Hepatic focal point density (No. focal points/100 mm^3) / Metastatic cell proliferation index (% cells positive to Ki67 antigen) / Length of angiogenic vessels (μm): day 12; for No. portal metases/No. sinusoidal metastasis (ratio in brackets): control 1; for Percentage of focal points w/cavitation (% of total no. of metastatic focal points): control 13.5 ± 5.0; for No. portal metases / No. sinusoidal metastasis: control 30; for Volume of hepatic metastasis (mm^3): control 60.0 ± 7.5; for Hepatic focal point density (No. focal points/100 mm^3): control 60.0 ± 11; for Metastatic cell proliferation index (% cells positive to Ki67 antigen): control 71.0 ± 5.0; for Length of angiogenic vessels (μm): control 175.0 ± 10
Experimental: MB16 Hepatic Metastasis Test using C57 BL/6J mice (males 6-8 weeks of age) supplied by IFFA Credo (L'Arbreole, France). The care, maintenance and experimental conditions were carried out in accordance with that which is set forth under EEC Council Directive 86/609 (OJ L 358. 1, Dec. 12, 1987) and the NIH guide for the care and use of laboratory animals (NIH publication 85-23, 1985). In the experiments with the resveratrol and azaresveratrol compounds (Table 1), the animals (10 per group) received 1 mg/Kg/day of the compounds nasogastrically every day up to the time of sacrifice. In the experiments with the JE2:2 compound (FIG. 12), one group of mice (n=10) was given an intraperitoneal injection of 0.5 mg/kg of the JE2:2 compound dissolved in 0.1 ml of PBS. The control group (n=10), was given an intraperitoneal injection of PBS. One hour later, animals were anesthetized and were intrasplenically injected with MB16 cells (3×10^5 cells/mouse). The same treatments, at the same doses, were repeated on days 2, 3, 4, 8, 9, 10 and 11 following tumor injection.
Twelve (12) days later, the livers were removed and processed for the histological study. Firstly, they were fixed in a solution of zinc (0.5 g calcium acetate, 5 g zinc acetate, 5 g zinc chloride and 1000 ml tris buffer, pH 7.4) for 24 hours. Once fixed, they were dehydrated in alcohols of increasing concentrations, and paraffin block were included. Afterward, a minimum of nine (9) cuts 10 μm in thickness were made per liver, leaving a space of 300 μm between every 3 cuts and a 1 mm space between successive groups of 3 cuts. Once the sections had been obtained, they were processed and stained with hematoxylin-eosine. On the one hand, the number, mean diameter, area and position coordinates of each metastasis were quantified by means of an integrated image analysis system (Olympus Microimage 4.0 capture kit) connected to an Olympus BX51TF microscope. With obtained data, metastatic parameters (that is to say, the number of focal points per 100 mm^3 of hepatic tissue) and metastatic volume (that is to say, the volume of liver occupied by metastatic tissue) were calculated as described by Vidal-Vanaclocha et al. [cf. Vidal-Vanaclocha, F., Amézaga, C., Asumendi, A., Kaplanski, G. & Dinarello, C. A. “Interleukin-1 receptor blockade reduces the number and size of murine B 16 melanoma hepatic metastases”, Cancer Research, 1994, vol. 54, pp. 2667-2672]. On the other hand, more cuts were made in the same blocks, and a double marking with CD31 and desmine was performed to calculate the number and length of the angiogenic vessels within the metastases and also to study metastases according to their angiogenic pattern in portal-type expansive metastases (the angiogenic vessels surround the metastases) or sinusoidal type invasive metastases (containing an internal network of angiogenic capillaries). Another parameter that was quantified is the cavitated metastasis percentage. Lastly, immunohistochemical detection of Ki67 antigen was performed to assess the number of tumor cells which proliferated per unit of tumor surface.
To this end, the MB16 cells were intrasplenically injected in C57BL/6J mice (3×10^5 viable cells per animal resuspended in endotoxin-free sterile saline solution), 12 days after which the capacity thereof of development metastasis was determined.
One group of mice (n=7) were administered an intraperitoneal injection of JE2:2 (2.5 mg/kg) 1′ hour prior to tumor cell injection, and the same dose was repeated on days 2, 3, 4, 8, 9, 10 and 11 in following thereto. The group of control mice (n=7) was administered PBS.

Row | Compound | Increase of H2O2 production of MB16 cells in response to IL-18 (in words) [1] | H2O2 production by MB16 cells treated with IL-18 [1] | Reduction of the mean density of hepatic metastases [2] | No. portal metases/No. sinusoidal metastasis (ratio in brackets) [2] | Percentage of focal points w/cavitation (% of total no. of metastatic focal points) [2] | No. portal metases [2] | No. sinusoidal metastasis [2] | Volume of hepatic metastasis (mm^3) [2] | Hepatic focal point density (No. focal points/100 mm^3) [2] | Metastatic cell proliferation index (% cells positive to Ki67 antigen) [2] | Length of angiogenic vessels (μm) [2]
1 | Oc1ccc(/N=C/c2cc(O)cc(O)c2)cc1 [azaresveratrol, 5-((E)-(4-Hydroxyphenylimino)methyl)benzene-1,3-diol] | significantly (P<0.01) inhibited | 10 ± 2.0 | 46% | 4.09 | 40.0 ± 10% | 22.5 | 5.5 | 24.0 ± 9.0 mm^3 | 28.0 ± 10 No. focal points/100 mm^3 | 35.0 ± 10% | 88.0 ± 21 μm
2 | Oc1ccc(C=Cc2cc(O)cc(O)c2)cc1 [resveratrol, reference compound] | significantly (P<0.01) inhibited | 12 ± 1.0 | 50% | 3 | 41.5 ± 11% | 22.5 | 7.5 | 18.7 ± 7.5 mm^3 | 30.0 ± 11 No. focal points/100 mm^3 | 40.0 ± 5.0% | 88.0 ± 23 μm
